Reference: PubChem BioAssay AID2060905 (Molecular Pharmacology Branch, DTP, NCI, 2025)
pIC50: −log10 of the molar value.

Test system: 282377-053-R-J1-PDC complex spheroid viability
Experiment: Anticancer human tumor 282377-053-R-J1-PDC patient-derived colon adenocarcinoma cell line growth inhibition [RAS]
Details: for pIC50: curve of first compound; for viability, T/C: stronger effect = lower value
Outline: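 Multi-cell-type spheroids: tumor cells plus HUVEC endothelial cells and mesenchymal stem cells. RAS-pathway inhibitors were combined with targeted agents, each dosed in half-log steps down from clinical Cmax, or from 10 microM when Cmax was unknown.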

[1] = second compound 0.00316 µM, first compound 0.0316 µM
[2] = second compound 0.00316 µM, first compound 0.1 µM
[3] = second compound 0.00316 µM, first compound 0.316 µM
[4] = second compound 0.00316 µM, first compound 1 µM
[5] = second compound 0.00316 µM, first compound 3.16 µM
[6] = second compound 0.00316 µM, first compound 10 µM
[7] = second compound 0.01 µM, first compound 0.0316 µM
[8] = second compound 0.01 µM, first compound 0.1 µM
[9] = second compound 0.01 µM, first compound 0.316 µM
[10] = second compound 0.01 µM, first compound 1 µM
[11] = second compound 0.01 µM, first compound 3.16 µM
[12] = second compound 0.01 µM, first compound 10 µM
[13] = second compound 0.0316 µM, first compound 0.0316 µM
[14] = second compound 0.0316 µM, first compound 0.1 µM
[15] = second compound 0.0316 µM, first compound 0.316 µM
[16] = second compound 0.0316 µM, first compound 1 µM
[17] = second compound 0.0316 µM, first compound 3.16 µM
[18] = second compound 0.0316 µM, first compound 10 µM
[19] = second compound 0.1 µM, first compound 0.0316 µM
[20] = second compound 0.1 µM, first compound 0.1 µM
[21] = second compound 0.1 µM, first compound 0.316 µM
[22] = second compound 0.1 µM, first compound 1 µM
[23] = second compound 0.1 µM, first compound 3.16 µM
[24] = second compound 0.1 µM, first compound 10 µM
[25] = second compound 0.316 µM, first compound 0.0316 µM
[26] = second compound 0.316 µM, first compound 0.1 µM
[27] = second compound 0.316 µM, first compound 0.316 µM
[28] = second compound 0.316 µM, first compound 1 µM
[29] = second compound 0.316 µM, first compound 3.16 µM
[30] = second compound 0.316 µM, first compound 10 µM
[31] = second compound 1 µM, first compound 0.0316 µM
[32] = second compound 1 µM, first compound 0.1 µM
[33] = second compound 1 µM, first compound 0.316 µM
[34] = second compound 1 µM, first compound 1 µM
[35] = second compound 1 µM, first compound 3.16 µM
[36] = second compound 1 µM, first compound 10 µM
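Also: spheroids exposed to agents for seven days before readout.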
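For viability, T/C in this document: luminescence viability as percent of DMSO vehicle control wells.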

`Cc1nc(N2CCC3(CC2)COC(C)C3N)c(CO)nc1Sc1ccnc(N)c1Cl` (stereo unspecified) + C=CC(=O)N1CCN(c2nc(OCC3CCCN3C)nc3c(F)c(-c4nc(N)cc(C)c4C(F)(F)F)c(Cl)cc23)C(C)C1 was tested, and the pIC50 (second compound 0.00316 µM) was less than 5.00, the pIC50 (second compound 0.01 µM) was less than 5.00 and the pIC50 (second compound 0.0316 µM) was less than 5.00. For the same compound, the pIC50 (second compound 0.1 µM) was less than 5.00, the pIC50 (second compound 0.316 µM) was less than 5.00 and the pIC50 (second compound 1 µM) was less than 5.00. It also gave a viability, T/C [1] of 111%, a viability, T/C [2] of 101% and a viability, T/C [3] of 118%. The viability, T/C [4] was 103%, the viability, T/C [5] was 108% and the viability, T/C [6] was 116%. The viability, T/C [7] was 100%, the viability, T/C [8] was 122% and the viability, T/C [9] was 103%. The viability, T/C [10] was 109%, the viability, T/C [11] was 92.5% and the viability, T/C [12] was 127%. The viability, T/C [13] was 93.6%, the viability, T/C [14] was 98.3% and the viability, T/C [15] was 109%. For the same compound, the viability, T/C [16] was 82.8%, the viability, T/C [17] was 76.3% and the viability, T/C [18] was 124%. It also gave a viability, T/C [19] of 89.5%, a viability, T/C [20] of 92.4% and a viability, T/C [21] of 110%. For the same compound, the viability, T/C [22] was 112%, the viability, T/C [23] was 105% and the viability, T/C [24] was 110%. The viability, T/C [25] was 103%, the viability, T/C [26] was 96.6% and the viability, T/C [27] was 85.5%. For the same compound, the viability, T/C [28] was 101%, the viability, T/C [29] was 100% and the viability, T/C [30] was 108%. The viability, T/C [31] was 106%, the viability, T/C [32] was 113% and the viability, T/C [33] was 118%. The viability, T/C [34] was 86.2%, the viability, T/C [35] was 110% and the viability, T/C [36] was 101%.

`NC1c2ccccc2OC12CCN(c1cnc3c(N4CCCc5ncccc54)n[nH]c3n1)CC2` (stereo unspecified) + C=CC(=O)N1CCN(c2nc(OCC3CCCN3C)nc3c(F)c(-c4nc(N)cc(C)c4C(F)(F)F)c(Cl)cc23)C(C)C1 was tested, and the pIC50 (second compound 0.00316 µM) was less than 5.00, the pIC50 (second compound 0.01 µM) was less than 5.00 and the pIC50 (second compound 0.0316 µM) was less than 5.00. For the same compound, the pIC50 (second compound 0.1 µM) was less than 5.00, the pIC50 (second compound 0.316 µM) was less than 5.00 and the pIC50 (second compound 1 µM) was less than 5.00. For the same compound, the viability, T/C [1] was 114%, the viability, T/C [2] was 104% and the viability, T/C [3] was 102%. It also gave a viability, T/C [4] of 95%, a viability, T/C [5] of 105% and a viability, T/C [6] of 79%. The viability, T/C [7] was 89.9%, the viability, T/C [8] was 112% and the viability, T/C [9] was 99.1%. For the same compound, the viability, T/C [10] was 118%, the viability, T/C [11] was 93.8% and the viability, T/C [12] was 86.5%. It also gave a viability, T/C [13] of 106%, a viability, T/C [14] of 105% and a viability, T/C [15] of 92.9%. For the same compound, the viability, T/C [16] was 92.2%, the viability, T/C [17] was 90.3% and the viability, T/C [18] was 83.5%. It also gave a viability, T/C [19] of 82.1%, a viability, T/C [20] of 87.8% and a viability, T/C [21] of 84.1%. The viability, T/C [22] was 108%, the viability, T/C [23] was 122% and the viability, T/C [24] was 84.2%. The viability, T/C [25] was 88%, the viability, T/C [26] was 98.6% and the viability, T/C [27] was 95.8%. It also gave a viability, T/C [28] of 96.5%, a viability, T/C [29] of 113% and a viability, T/C [30] of 91.1%. It also gave a viability, T/C [31] of 97.5%, a viability, T/C [32] of 106% and a viability, T/C [33] of 103%. It also gave a viability, T/C [34] of 104%, a viability, T/C [35] of 104% and a viability, T/C [36] of 86.6%.

`Nc1ccn(C2OC(CO)C(O)C2(F)F)c(=O)n1` (stereo unspecified) + C=CC(=O)N1CCN(c2nc(OCC3CCCN3C)nc3c(F)c(-c4nc(N)cc(C)c4C(F)(F)F)c(Cl)cc23)C(C)C1 gave a pIC50 (second compound 0.00316 µM) of 6.58, a pIC50 (second compound 0.01 µM) of 6.59 and a pIC50 (second compound 0.0316 µM) of 6.67. The pIC50 (second compound 0.1 µM) was 6.56, the pIC50 (second compound 0.316 µM) was 6.61 and the pIC50 (second compound 1 µM) was 6.24. The viability, T/C (second compound 0.00316 µM, first compound 0.00316 µM) was 108%, the viability, T/C (second compound 0.00316 µM, first compound 0.01 µM) was 98.9% and the viability, T/C [1] was 99%. For the same compound, the viability, T/C [2] was 80.1%, the viability, T/C [3] was 44.1% and the viability, T/C [4] was 31.6%. The viability, T/C (second compound 0.01 µM, first compound 0.00316 µM) was 98.3%, the viability, T/C (second compound 0.01 µM, first compound 0.01 µM) was 111% and the viability, T/C [7] was 102%. For the same compound, the viability, T/C [8] was 72.4%, the viability, T/C [9] was 47.8% and the viability, T/C [10] was 35%. The viability, T/C (second compound 0.0316 µM, first compound 0.00316 µM) was 117%, the viability, T/C (second compound 0.0316 µM, first compound 0.01 µM) was 110% and the viability, T/C [13] was 118%. The viability, T/C [14] was 69.2%, the viability, T/C [15] was 46.9% and the viability, T/C [16] was 33.8%. The viability, T/C (second compound 0.1 µM, first compound 0.00316 µM) was 90.1%, the viability, T/C (second compound 0.1 µM, first compound 0.01 µM) was 101% and the viability, T/C [19] was 101%. The viability, T/C [20] was 79.8%, the viability, T/C [21] was 47.2% and the viability, T/C [22] was 34.4%. For the same compound, the viability, T/C (second compound 0.316 µM, first compound 0.00316 µM) was 117%, the viability, T/C (second compound 0.316 µM, first compound 0.01 µM) was 125% and the viability, T/C [25] was 107%. For the same compound, the viability, T/C [26] was 65.6%, the viability, T/C [27] was 52.2% and the viability, T/C [28] was 32.9%. It also gave a viability, T/C (second compound 1 µM, first compound 0.00316 µM) of 101%, a viability, T/C (second compound 1 µM, first compound 0.01 µM) of 101% and a viability, T/C [31] of 99%. The viability, T/C [32] was 88%, the viability, T/C [33] was 65.3% and the viability, T/C [34] was 36.5%.
